This is an account of results in US20100330029A1, “Cancer Treatments with Radiation and Immunocytokines” (Merck Patent GmbH, priority 2008, published 2010).

The assay relates to Lewis lung carcinoma (LLC). The assay can be described thus: tumor growth assay, Lewis lung carcinoma model. The assay is classed as in vivo, mice. Conditions: LLC-3, single-arm groups: cisplatin plus 3.6 Gy/d without EMD521873, or EMD521873 alone. On the procedure: LL/2 (LLC) cells, a murine Lewis lung carcinoma cell line, were maintained in DMEM, supplemented with 10% heat-inactivated fetal bovine serum, L-glutamine, penicillin/streptomycin (Life Technologies, Inc.) at 37° C. and 7% CO2. LLC cells were implanted in female C57BL/6 mice.
For the tumor growth assay, cells growing exponentially in culture were injected as a single cell suspension in 100 μl of PBS intramuscularly into the upper legs of the mice. In experiments using a dual tumor model, cells were also implanted in the flanks of the mice. […] In Experiment LLC-7, tumors were implanted in the flank until established. Mice were treated on days 0 to 9, then, on day 12, tumors were excised using survival surgery. Thereafter, animal survival was monitored. In Experiment LLC-14, tumors were implanted subcutaneously in the flank until established. Mice were treated on days 0 to 6 and day 17, and tumor size was measured twice weekly for the duration of the study.
Tumors were measured with calipers in three dimensions for the duration of the experiment. Tumor volumes were calculated using the equation:
Volume=4/3π(L/2×W/2×H/2) • where L=length, W=width and H=height of the tumor
For local irradiation, mice were anesthetized by intraperitoneal injection of a solution of 2% tribromoethanol/3% xylazine. The amount injected was 0.02 ml/gram of the recipient's weight. Mice were restrained so that only their tumor-bearing leg was exposed to radiation, while the reminder of the mouse was shielded. Tumors were irradiated with ^137Cs gamma radiation at a dose rate of 1 Gy/min using a Gammacell® 40 Exactor (Nordion, Ottawa, ON).
Data from the subcutaneous tumor growth assay are presented in graphic form depicting average and standard deviations (sd) of tumor volumes or weights during and after dosing. Animal weight changes were determined by subtracting the animal weight at each time point from the initial body weight, on day 0, then dividing by the initial body weight and multiplying by 100. Therefore a value of 0 indicates no weight change.
Student's 2-tailed t test or Mann-Whitney Rank Sum test, as appropriate, was performed on the individual tumor volumes or animal weights, to determine significant differences between treatment groups.

For the molecule `N.N.[Cl][Pt][Cl]` [cisplatin, cis-diammineplatinum (II) dichloride, reference compound], the complete responses is listed as 0/6. Further, for the setting “day 19”, the T/C amounted to 0.32.
